# In patent publication US6992079B2, “Substituted 11-phenyl-dibenzazepine compounds useful for the treatment or prevention of diseases characterized by abnormal cell proliferation” (President Fellows of Harvard College, priority 1997, dated 2006):
# Columns and labels:
# [1] = Preliminary toxicology, subcutaneous injection for 14 days; type: in vivo, CD-1 female mice; settings: CD-1 female mice; 80 mg/kg/day s.c. 14 days
# Experimental: The toxicological effects of CLT, and compounds 28, 30 and 31 were tested in CD-1 female mice. A dose of 80 mg/kg/day was given to each mouse via subcutaneous injection for a period of 14 days. Preliminary toxicological data was determined by measuring body weight, gross pathology of organs blood chemistry and histology. The vehicle used was DMF 12%+2% Tween 20 88%.
# [2] = test system: H460 large cell lung carcinoma; experiment: Mouse xenograft tumor growth; type: in vivo, CD-1 nude mice
# [3] = test system: A2058 metastatic melanoma; experiment: Mouse xenograft tumor growth; type: in vivo, CD-1 nude mice
# Experimental: NCI-A2058 human melanoma cell line was grown as monolayer culture in Minimum essential medium (D-MEM) supplemented with 10% fetal bovine serum (FBS), 0.1 mM non-essential amino acid, 1.0 mM sodium pyruvate, 100U/ml penicillin, 100 μg/ml streptomycin and 0.25 μg/ml amphotericin B and L-alanyl-1-glutamine (2 mM) at 37° C. in an atmosphere of 5% CO2 in air. The tumor cells were routinely subcultured twice weekly by trypsin-EDTA treatment. The cells were harvested from subconfluent logarithmically growing culture by treatment with typsin-EDTA and counted for tumor inoculation.
# An acclimation period of at least 7 days were allowed between animal receipt and commence of tumor inoculation. When the female CD-1 nude mice were more than 6-7 weeks of age (20-25 g), each mouse was subcutaneously injected with 5.0×10^6 NCI-A2058 human melanoma cells in 0.1 ml of PBS solution at the right flank of the mice to induce tumor growth.
# CCRF-CEM = experiment: In-Vitro Testing SRB panel: Leukemia; type: cell-based
# MOLT-4 = experiment: In-Vitro Testing SRB panel: Leukemia; type: cell-based
# HCT-116 = experiment: In-Vitro Testing SRB panel: Colon Cancer; type: cell-based
# KM12 = experiment: In-Vitro Testing SRB panel: Colon Cancer; type: cell-based
# SF-268 = experiment: In-Vitro Testing SRB panel: CNS Cancer; type: cell-based
# SF-295 = experiment: In-Vitro Testing SRB panel: CNS Cancer; type: cell-based
# SNB-75 = experiment: In-Vitro Testing SRB panel: CNS Cancer; type: cell-based
# SK-MEL-5 = experiment: In-Vitro Testing SRB panel: Melanoma; type: cell-based
# OVCAR-8 = experiment: In-Vitro Testing SRB panel: Ovarian Cancer; type: cell-based
# 786-0 = experiment: In-Vitro Testing SRB panel: Renal Cancer; type: cell-based
# ACHN = experiment: In-Vitro Testing SRB panel: Renal Cancer; type: cell-based
# RXF 393 = experiment: In-Vitro Testing SRB panel: Renal Cancer; type: cell-based
# T-47D = experiment: In-Vitro Testing SRB panel: Breast Cancer; type: cell-based
# [4] = Homo sapiens, read-out: LC50 (the source's name)
smiles,measurement,setting,value
COc1ccc2c(c1)CN(C(=O)c1ccc([N+](=O)[O-])cc1)c1ccc(Cl)cc1C2c1ccccc1Cl (centres unmarked) [Compound 30],Body Weight Change,[1],108%
same,Liver Weight,[1],1.52 ± 0.23 g
same,RBC,[1],8.2 ± 0.2 10^6/mm^3
same,WBC,[1],6.4 ± 1.7 10^3/mm^3
same,"WBC, RBC, BUN and creatine levels",[1],no differences were found
same,tumor growth,[2],showed inhibition of tumor growth
same,tumor growth,[3],showed inhibition of tumor growth
same,TGI,CCRF-CEM,>1.00E−04 Molar
same,GI50,CCRF-CEM; Homo sapiens,1.85 µM
same,CC50,CCRF-CEM; [4],> 100 µM
same,Percent Growth,CCRF-CEM; Log10 concentration −4.0 Molar,39%
same,Percent Growth,CCRF-CEM; Log10 concentration −5.0 Molar,22%
same,Percent Growth,CCRF-CEM; Log10 concentration −6.0 Molar,60%
same,Percent Growth,CCRF-CEM; Log10 concentration −7.0 Molar,70%
same,Percent Growth,CCRF-CEM; Log10 concentration −8.0 Molar,73%
same,GI50,"MOLT-4; Homo sapiens, MOLT-4",1.33 µM
same,CC50,"MOLT-4; Homo sapiens, MOLT-4, read-out: LC50 (the source's name)",> 100 µM
same,TGI,MOLT-4; MOLT-4,>1.00E−04 Molar
same,Percent Growth,"MOLT-4; MOLT-4, Log10 concentration −4.0 Molar",13%
same,Percent Growth,"MOLT-4; MOLT-4, Log10 concentration −5.0 Molar",23%
same,Percent Growth,"MOLT-4; MOLT-4, Log10 concentration −6.0 Molar",54%
same,Percent Growth,"MOLT-4; MOLT-4, Log10 concentration −7.0 Molar",89%
same,Percent Growth,"MOLT-4; MOLT-4, Log10 concentration −8.0 Molar",103%
same,TGI,HCT-116; HCT-116,1.00E−04 Molar
same,Percent Growth,"HCT-116; HCT-116, Log10 concentration −4.0 Molar",22%
same,Percent Growth,"HCT-116; HCT-116, Log10 concentration −5.0 Molar",17%
same,Percent Growth,"HCT-116; HCT-116, Log10 concentration −6.0 Molar",63%
same,Percent Growth,"HCT-116; HCT-116, Log10 concentration −7.0 Molar",90%
same,Percent Growth,"HCT-116; HCT-116, Log10 concentration −8.0 Molar",97%
same,GI50,"HCT-116; Homo sapiens, HCT-116",1.91 µM
same,CC50,"HCT-116; Homo sapiens, HCT-116, read-out: LC50 (the source's name)",> 100 µM
same,GI50,"KM12; Homo sapiens, KM12",3.06 µM
same,CC50,"KM12; Homo sapiens, KM12, RM12, read-out: LC50 (the source's name)",> 100 µM
same,TGI,KM12; RM12,>1.00E−04 Molar
same,Percent Growth,"KM12; RM12, Log10 concentration −4.0 Molar",36%
same,Percent Growth,"KM12; RM12, Log10 concentration −5.0 Molar",41%
same,Percent Growth,"KM12; RM12, Log10 concentration −6.0 Molar",59%
same,Percent Growth,"KM12; RM12, Log10 concentration −7.0 Molar",91%
same,Percent Growth,"KM12; RM12, Log10 concentration −8.0 Molar",95%
same,GI50,"SF-268; Homo sapiens, SF-268",3.08 µM
same,CC50,"SF-268; Homo sapiens, SF-268, read-out: LC50 (the source's name)",> 100 µM
same,TGI,SF-268; SF-268,>1.00E−04 Molar
same,Percent Growth,"SF-268; SF-268, Log10 concentration −4.0 Molar",21%
same,Percent Growth,"SF-268; SF-268, Log10 concentration −5.0 Molar",30%
same,Percent Growth,"SF-268; SF-268, Log10 concentration −6.0 Molar",69%
same,Percent Growth,"SF-268; SF-268, Log10 concentration −7.0 Molar",115%
same,Percent Growth,"SF-268; SF-268, Log10 concentration −8.0 Molar",104%
same,GI50,"SF-295; Homo sapiens, SF-295",6.49 µM
same,CC50,"SF-295; Homo sapiens, SF-295, read-out: LC50 (the source's name)",> 100 µM
same,TGI,SF-295; SF-295,>1.00E−04 Molar
same,Percent Growth,"SF-295; SF-295, Log10 concentration −4.0 Molar",32%
same,Percent Growth,"SF-295; SF-295, Log10 concentration −5.0 Molar",41%
same,Percent Growth,"SF-295; SF-295, Log10 concentration −6.0 Molar",88%
same,Percent Growth,"SF-295; SF-295, Log10 concentration −7.0 Molar",104%
same,Percent Growth,"SF-295; SF-295, Log10 concentration −8.0 Molar",93%
same,GI50,"SNB-75; Homo sapiens, SNB-75",4.52 µM
same,CC50,"SNB-75; Homo sapiens, SNB-75, read-out: LC50 (the source's name)",> 100 µM
same,TGI,SNB-75; SNB-75,>1.00E−04 Molar
same,Percent Growth,"SNB-75; SNB-75, Log10 concentration −4.0 Molar",25%
same,Percent Growth,"SNB-75; SNB-75, Log10 concentration −5.0 Molar",32%
same,Percent Growth,"SNB-75; SNB-75, Log10 concentration −6.0 Molar",83%
same,Percent Growth,"SNB-75; SNB-75, Log10 concentration −7.0 Molar",103%
same,Percent Growth,"SNB-75; SNB-75, Log10 concentration −8.0 Molar",99%
same,GI50,"SK-MEL-5; Homo sapiens, SK-MEL-5",3.95 µM
same,CC50,"SK-MEL-5; Homo sapiens, SK-MEL-5, read-out: LC50 (the source's name)",> 100 µM
same,TGI,SK-MEL-5; SK-MEL-5,>1.00E−04 Molar
same,Percent Growth,"SK-MEL-5; SK-MEL-5, Log10 concentration −4.0 Molar",12%
same,Percent Growth,"SK-MEL-5; SK-MEL-5, Log10 concentration −5.0 Molar",26%
same,Percent Growth,"SK-MEL-5; SK-MEL-5, Log10 concentration −6.0 Molar",85%
same,Percent Growth,"SK-MEL-5; SK-MEL-5, Log10 concentration −7.0 Molar",90%
same,Percent Growth,"SK-MEL-5; SK-MEL-5, Log10 concentration −8.0 Molar",93%
same,GI50,"OVCAR-8; Homo sapiens, OVCAR-8",7.72 µM
same,CC50,"OVCAR-8; Homo sapiens, OVCAR-8, read-out: LC50 (the source's name)",> 100 µM
same,TGI,OVCAR-8; OVCAR-8,>1.00E−04 Molar
same,Percent Growth,"OVCAR-8; OVCAR-8, Log10 concentration −4.0 Molar",48%
same,Percent Growth,"OVCAR-8; OVCAR-8, Log10 concentration −5.0 Molar",46%
same,Percent Growth,"OVCAR-8; OVCAR-8, Log10 concentration −6.0 Molar",84%
same,Percent Growth,"OVCAR-8; OVCAR-8, Log10 concentration −7.0 Molar",95%
same,Percent Growth,"OVCAR-8; OVCAR-8, Log10 concentration −8.0 Molar",96%
same,TGI,786-0; 786-0,>1.00E−04 Molar
same,Percent Growth,"786-0; 786-0, Log10 concentration −4.0 Molar",28%
same,Percent Growth,"786-0; 786-0, Log10 concentration −5.0 Molar",11%
same,Percent Growth,"786-0; 786-0, Log10 concentration −6.0 Molar",92%
same,Percent Growth,"786-0; 786-0, Log10 concentration −7.0 Molar",98%
same,Percent Growth,"786-0; 786-0, Log10 concentration −8.0 Molar",98%
same,GI50,"786-0; Homo sapiens, 786-0",3.28 µM
same,CC50,"786-0; Homo sapiens, 786-0, read-out: LC50 (the source's name)",> 100 µM
same,TGI,ACHN,>1.00E−04 Molar
same,CC50,ACHN; [4],> 100 µM
same,Percent Growth,ACHN; Log10 concentration −4.0 Molar,53%
same,Percent Growth,ACHN; Log10 concentration −5.0 Molar,50%
same,Percent Growth,ACHN; Log10 concentration −6.0 Molar,94%
same,Percent Growth,ACHN; Log10 concentration −7.0 Molar,108%
same,Percent Growth,ACHN; Log10 concentration −8.0 Molar,107%
same,GI50,"RXF 393; Homo sapiens, RXF 393",3.4 µM
same,CC50,"RXF 393; Homo sapiens, RXF 393, read-out: LC50 (the source's name)",> 100 µM
same,TGI,RXF 393; RXF 393,>1.00E−04 Molar
same,Percent Growth,"RXF 393; RXF 393, Log10 concentration −4.0 Molar",20%
same,Percent Growth,"RXF 393; RXF 393, Log10 concentration −5.0 Molar",23%
same,Percent Growth,"RXF 393; RXF 393, Log10 concentration −6.0 Molar",81%
same,Percent Growth,"RXF 393; RXF 393, Log10 concentration −7.0 Molar",97%
same,Percent Growth,"RXF 393; RXF 393, Log10 concentration −8.0 Molar",90%
same,GI50,"T-47D; Homo sapiens, T47D",2.87 µM
same,CC50,"T-47D; Homo sapiens, T47D, T-47D, read-out: LC50 (the source's name)",> 100 µM
same,TGI,T-47D; T-47D,>1.00E−04 Molar
same,Percent Growth,"T-47D; T-47D, Log10 concentration −4.0 Molar",18%
same,Percent Growth,"T-47D; T-47D, Log10 concentration −5.0 Molar",23%
same,Percent Growth,"T-47D; T-47D, Log10 concentration −6.0 Molar",71%
same,Percent Growth,"T-47D; T-47D, Log10 concentration −7.0 Molar",96%
same,Percent Growth,"T-47D; T-47D, Log10 concentration −8.0 Molar",92%
